Results on two compounds are retold here after EP0466548A1, “1,2,3,4,5,6-Hexahydroazepino[4,5-b]indole and 1,2,3,4-tetrahydro-beta-carbolines, processes for their preparation, and pharmaceutical compositions containing them” (ADIR ET COMPAGNIE, priority 1990, dated 1992).

For test [1], the system named is rat. Briefly: Anxiolytic activity: elevated plus maze. Format: in vivo. The note with it: 60 min before test; for nb total d'entrées: 5 min test, control 14 ± 2; for % du temps passé dans le bras ouvert: control 22 % ± 5 %; for % d'entrées dans le bras ouvert: control 28 % ± 5 %. As for the experimental part:
Le potentiel anxiolytique de ces produits a été recherché selon le test "elevated plus maze".
Ce test permet d'étudier le comportement du rat, traité ou non, dans une situation de choix entre un espace clos rassurant ("bras clos") et un espace ouvert générateur d'anxiété ("bras ouvert").
Le test consiste à compter le nombre d'entrées dans chaque bras du labyrinthe durant 5 minutes et à mesurer le temps passé dans le "bras ouvert".
Les rats sont randomisés en lots de 8 et reçoivent les produits à tester par administration intrapéritonéale 60 minutes avant le début du test.

For test [2], the system named is rats mâles, Sprague Dawley. Description: Anti-inflammatory activity: carrageenan-induced paw oedema (plethysmography). Type of test: in vivo, rat. The note with it: 30 to 60 min before carrageenan, paw volume 3 h after carrageenan. Here is the method:
Le potentiel antiinflammatoire des composés a été recherché selon un modèle d'inflammation aigue provoquée par injection sous cutanée de carragénine au niveau de la patte postérieure du rat selon une technique inspirée de WINTER et coll. […] J. Phamacol.
Les rats mâles, Sprague Dawley de 200 à 300 g sont randomisés en lots de 10 et reçoivent les substances à tester par administration intra péritonéale 30 à 60 minutes avant l'injection locale au niveau de la patte arrière gauche de 0,1 ml d'une suspension à 0,5 % de Carragénine dans du sérum physiologique stérile.
La patte arrière droite servant de témoin, reçoit une injection de sérum physiologique.
Trois heures après l'injection de la Carragénine, les animaux sont anesthésiés de façon profonde au Narcorem R et le volume des deux pattes arrières mesuré par Pléthysmographie
Les résultats sont exprimés en pourcentage de variation de volume v% : v% =(volume patte gauche - volume patte droite)/(volume patte droite) [formula] l'activité antiinflammatoire AAI% est définie par : [drawing 54]
On the technique in general: Carrageenan injected into the paw causes an acute inflammation.

Test [3] relates to souris. Briefly: Analgesic activity: Acetic Acid Writhing test. Format: in vivo. The note with it: 50 mg/Kg intraperitoneal, 30 min before 0,3 cm³ acetic acid 1% i.p.; control 23 ± 14. Here is the method:
Le potentiel analgésique de ces produits a été recherché selon le test dit "Acetic Acid Writhing" qui est basé sur le comptage des crampes abdominales induites chez la souris par injection intra péritonéale d'acide acétique (GAIRIN et Coll J. Pharmacol. Exp. Ther 245, 955 (1988))
Les souris randomisées en lots de 10 reçoivent les produits à tester par voie intra péritonéale 30 minutes avant l'administration intra péritonéale de 0,3 cm³ d'acide acétique à 1%
Le nombre de crampes est compté entre la 5ème et 20ème minutes après l'injection d'acide acétique.

Molecules are shown by their SMILES.

`COC(=O)[C@@H]1Cc2c([nH]c3ccccc23)C2(CCN(C)CC2)N1` [[ 3-METHOXYCARBONYLE 1,2,3,4-TETRAHYDRO-β-CARBOLINE (3 S)]-1-SPIRO-4′- [ 1-METHYL PIPERIDINE]]: in test [1] (100mg/Kg IP), the “nb total d'entrées” value came out at 18 ± 1, the “% du temps passé dans le bras ouvert” value is 41 % ± 4% and the “% d'entrées dans le bras ouvert” value is 44 % ± 3%. In test [2] (25 mg/Kg intraperitoneal), this compound came in with an AAI% of 14%.
Turning to `COC(=O)[C@@H]1Cc2c([nH]c3ccccc23)C2(CCCCC2)N1` [[ 3-METHOXYCARBONYLE 1,2,3,4-TETRAHYDRO-β-CARBOLINE (3 S)]-1-SPIRO-CYCLOHEXANE], in test [1] (50 mg/Kg IP), the “nb total d'entrées” value is recorded as 18 ± 2, the “% du temps passé dans le bras ouvert” value is reported as 40 % ± 6% and the “% d'entrées dans le bras ouvert” value was 42 % ± 4%. Also, the “Nombre de crampes par minute (entre la 5ème et la 20ème minutes)” value in test [3] came out at 1 ± 1. The AAI% in test [2] (50 mg/Kg intraperitoneal) is 14%.
